In patent US20260284082A1, “TARGETING THE PANX1-P2Y2R-TRPV4 PATHWAY TO TREAT LUNG ISCHEMIA-REPERFUSION INJURY” (UNIVERSITY OF VIRGINIA PATENT FOUNDATION, priority 2023, published 2026):

What was measured:
[1] = test system: pulmonary endothelium of small PAs; assay: Baseline endothelial Ca2+ signaling in en face small PAs after lung IR (Fluo-4 confocal imaging); type: cell-based, mice; conditions: apyrase 10 U/mL; small PAs after lung IR
Description: (§1) Murine lung IR model: A well-established left lung IRI model involving temporary in vivo ligation of the left hilum (pulmonary artery, vein, and airway) was used.^6 Briefly, mice were anesthetized with inhaled isoflurane, intubated, ventilated with room air at 150 strokes/min with a tidal volume of […] (Harvard Apparatus Co, South Natick, MA), and heparinized (20 U/kg: Hospira Inc, Lake Forest, IL). An anterolateral thoracotomy was performed through the fourth intercostal space to expose the left hilum. A 6-0 Prolene suture (Ethicon. Somerville, NJ) was passed around the left hilum, and the suture ends were passed through a 5-mm length of polyethylene (PE)-50 tubing. A surgical clip was used to fashion a Rummel tourniquet to provide temporary occlusion of the left hilar structures. The thoracotomy was closed, anesthesia was weaned, and analgesia was administered (intraperitoneal buprenorphine. 0.2 mg/kg). Animals recovered in their cages during the 1-hour ischemic period, after which they were anesthetized again and intubated, the Rummel tourniquet was removed, and the thoracotomy was closed. Animals were again extubated, recovered in their cage, and monitored during the 2-hour reperfusion period. Sham animals underwent the same surgical procedure except that application of the Rummel tourniquet to induce ischemia was omitted; thus, these animals were perfused for a total of 3 hours.
Ca^2+ imaging in Pas: Ca^2+ imaging in small Pas was performed as previously described.8 Fourth-order, small (~50 μm diameter) Pas (see FIG. 1B) were dissected from left lungs in cold HEPES-buffered physiological salt solution (HEPES-PSS; 10 mM HEPES, 134 mM NaCl, 6 mM KCl, 1 mM MgCl2 hexahydrate, 2 mM CaCl2) dihydrate, and 7 mM dextrose; pH adjusted to 7.4 using 1 M NaOH). […] Fluo-4 was excited using a 488-nm solid-state laser, and emitted fluorescence was captured using a 525/36-nm band-pass filter. […] Baseline Ca^2+ signaling activity was recorded in the absence of CPA. […]

[2] = test system: TRPV4EC channels; assay: TRPV4 sparklet activity in endothelium of small PAs after lung IR (in presence of CPA); type: cell-based, mice; conditions: apyrase 10 U/mL; small PAs after lung IR
Description: as §1, with “Sham animals underwent the same surgical procedure except that application of the Rummel tourniquet to induce ischemia was omitted; thus, these animals were perfused for a total of 3 hours.” left out
Ca^2+ imaging in Pas: Ca^2+ imaging in small Pas was performed as previously described.8 Fourth-order, small (~50 μm diameter) Pas (see FIG. 1B) were dissected from left lungs in cold HEPES-buffered physiological salt solution (HEPES-PSS; 10 mM HEPES, 134 mM NaCl, 6 mM KCl, 1 mM MgCl2 hexahydrate, 2 mM CaCl2) dihydrate, and 7 mM dextrose; pH adjusted to 7.4 using 1 M NaOH). […] Fluo-4 was excited using a 488-nm solid-state laser, and emitted fluorescence was captured using a 525/36-nm band-pass filter. […] Baseline Ca^2+ signaling activity was recorded in the absence of CPA.
TRPV4 sparklets were assessed as increases in fluorescence relative to baseline fluorescence, obtained by averaging 10 quiescent images prior to stimulation. […]

[3] = human, in vivo; cited from earlier work
[4] = test system: eATP efflux through Panx1 channels; assay: Luciferase assay for eATP release from small PAs; type: cell-based, mouse; conditions: GSK101 10 nM
Description: Luciferase assay for total ATP release: Small Pas were cut open and pinned down en face on a Sylgard block. Pas were then placed in black, opaque 96-well plates and incubated in HEPES-PSS for 10 minutes at 37° C., followed by incubation with the ectonucleotidase inhibitor ARL 67156 (300 μmol/L; Tocris Bioscience, Minneapolis, MN) for 30 minutes at 37° C. A 50-μL aliquot of each sample was transferred to another black, opaque 96-well plate, and ATP was measured using an ATP Bioluminescence HSII kit (Roche Applied Science, Penzberg, Germany).^5 Briefly, 50 μL of the luciferase reagent, luciferin, provided in the assay kit (Roche Applied Science), was added to each well and. following a 5-second orbital mix, luminescence was recorded using a luminometer (FluoStar Omega). ATP concentrations were calculated by reference to an ATP standard curve.

[5] = test system: TRPV4 channels; conditions: CPA 20 μM as used; cited from earlier work

apyrase
IR-induced increase in baseline Ca2+ signaling activity [1]: abolished
IR-induced increase in TRPV4EC channel activity [2]: abolished

CC(C)(O)c1cnc(N2C[C@@]3(CCC[C@](C)(Cn4cnc5ccc(C#N)cc54)C3)OC2=O)cn1 [GSK2798745]
tolerability [3]: well tolerated

CC(C)C[C@H](NC(=O)c1cc2ccccc2s1)C(=O)N1CCN(C(=O)[C@H](CO)NS(=O)(=O)c2ccc(Cl)cc2Cl)CC1 [GSK101, GSK1016790A]
eATP efflux through Panx1 channels (eATP release from small PAs) [4]: increased

CC(=O)C1=C(O)[C@@H]2[C@H]3c4c[nH]c5cccc(c45)C[C@H]3C(C)(C)N2C1=O [CPA, Cyclopiazonic acid]
effect of CPA by itself on activity of TRPV4 channels [5]: does not alter
